Settings: instrument: TW, calibrated with polyalanine

| SMILES | collision cross section (N2) ([M-H]-) [Å²] | collision cross section (N2) ([M+H]+) [Å²] | collision cross section (N2) ([M+K]+) [Å²] | collision cross section (N2) ([M+NH4]+) [Å²] | collision cross section (N2) ([M+Na]+) [Å²] | collision cross section (N2) ([M+H3C2O2]-) [Å²] |
| --- | --- | --- | --- | --- | --- | --- |
| Cc1cc(O)cc2oc(=O)c3c(O)cc(O)cc3c12 [Alternariol] | 146 |  |  |  |  |  |
| CC(C)[C@H]1OC(=O)[C@H](Cc2ccccc2)N(C)C(=O)[C@@H](C(C)C)OC(=O)[C@H](Cc2ccccc2)N(C)C(=O)[C@@H](C(C)C)OC(=O)[C@H](Cc2ccccc2)N(C)C1=O [Beauvericin] |  | 283.8 | 290.3 | 269 | 287.4 |  |
| CC[C@H](C)[C@H]1C(=O)O[C@H](C(C)C)C(=O)N(C)[C@@H]([C@@H](C)CC)C(=O)O[C@H](C(C)C)C(=O)N(C)[C@@H](C(C)C)C(=O)O[C@H](C(C)C)C(=O)N1C [Enniatin A1] |  | 252.2 | 257.9 | 259 | 258 |  |
| CC[C@H](C)[C@H]1C(=O)O[C@H](C(C)C)C(=O)N(C)[C@@H]([C@@H](C)CC)C(=O)O[C@H](C(C)C)C(=O)N(C)[C@@H]([C@@H](C)CC)C(=O)O[C@H](C(C)C)C(=O)N1C [Enniatin A] |  | 257.9 | 264.7 | 264 | 262.4 |  |
| CCCC[C@@H](C)[C@@H](OC(=O)C[C@@H](CC(=O)O)C(=O)O)[C@H](C[C@@H](C)C[C@H](O)CCCC[C@@H](O)C[C@H](O)[C@H](C)N)OC(=O)C[C@@H](CC(=O)O)C(=O)O [Fumonisin B1] |  | 258 | 269 |  | 264.4 |  |
| CCCC[C@@H](C)[C@@H](OC(=O)CC(CC(=O)O)C(=O)O)[C@H](C[C@@H](C)C[C@H](O)CCCCCC[C@@H](O)[C@H](C)N)OC(=O)CC(CC(=O)O)C(=O)O (some centres not stated) [Fumonisin B3] |  | 258 | 264.5 |  | 259.2 |  |
| CCCC[C@@H](C)[C@@H](OC(=O)C[C@@H](CC(=O)O)C(=O)O)[C@H](C[C@@H](C)CCCCCCCC[C@H](O)[C@H](C)N)OC(=O)C[C@@H](CC(=O)O)C(=O)O [Fumonisin B4] |  | 255 | 264.6 |  | 260.4 |  |
| C=CC(C)(C)[C@@]12C=C(O)C(=O)N3/C(=C/c4cnc[nH]4)C(=O)N[C@]31N(OC)c1ccccc12 [Meleagrin] |  | 201 |  |  |  |  |
| COc1c(C)c2c(c(O)c1C/C=C(\C)CCC(=O)O)C(=O)OC2 [Mycophenolic acid] |  |  |  | 176 |  |  |
| O=C1C=C2C(=CCOC2O)O1 (configuration not stated) [Patulin] |  |  |  |  |  | 142 |
| C=C(C)C(=O)/C(=C/C(=O)O)OC [Penicillic acid] |  | 131 |  |  |  |  |
| C[C@H]1CCC[C@H](O)CCC/C=C/c2cc(O)cc(O)c2C(=O)O1 [alpha-zearalenol] | 173 |  |  |  |  |  |
